Active and inactive are the calls of the source. The rule behind the calls is not given here.

Target in one experiment: not listed separately
The experiment is described as follows: Inhibition of guinea pig protein-glutamine gamma-glutamyltransferase 2 assessed as fluorescent intensity of monodansyl cadaverine. Also on record: species or system Cavia porcellus.
As to `COC(=O)C(CSSCC(NCCC(=O)c1ccc(I)s1)C(=O)OC)NCCC(=O)c1ccc(I)s1` (stereo not drawn), the IC50 (in general, the concentration needed to halve the response being measured) was determined as 240 nM.

For the compound `COC(=O)C(CSSCC(NCCC(=O)c1cccs1)C(=O)OC)NCCC(=O)c1cccs1` (stereo not drawn), the IC50 worked out at 400 nM.

Turning to `COC(=O)C(CCSSCCC(NCCC(=O)c1cccs1)C(=O)OC)NCCC(=O)c1cccs1` (stereo not drawn), the IC50 was 3600 nM.

Take `COC(=O)C(CCSSCCC(NCCC(=O)c1ccc(Br)cc1)C(=O)OC)NCCC(=O)c1ccc(Br)cc1` (stereo not drawn): the IC50 turned out to be 1600 nM.

In the case of `COC(=O)C(CCSSCCC(NCCC(=O)c1ccc(I)s1)C(=O)OC)NCCC(=O)c1ccc(I)s1` (stereo not drawn), the IC50 amounted to 100 nM.

As to `O=C(CCNCCSSCCNCCC(=O)c1ccc(Br)cc1)c1ccc(Br)cc1`, the IC50 was 120 nM.

For `COC(=O)C(CSSCC(NCCC(=O)c1cc2ccccc2s1)C(=O)OC)NCCC(=O)c1cc2ccccc2s1` (stereo not drawn), the IC50 was 900 nM.

As to `O=C(CCNCCSSCCNCCC(=O)c1ccc(Br)s1)c1ccc(Br)s1`, the IC50 was determined as 120 nM.

As to `O=C(CCNCCSSCCNCCC(=O)c1ccco1)c1ccco1`, the IC50 was 420 nM.

For `COC(=O)C(CSSCC(NCCC(=O)c1ccc2ccccc2c1)C(=O)OC)NCCC(=O)c1ccc2ccccc2c1` (stereo not drawn), the IC50 was found to be 19000 nM.

Consider `COC(=O)C(CSSCC(NCCC(=O)c1ccc(C#N)cc1)C(=O)OC)NCCC(=O)c1ccc(C#N)cc1` (stereo not drawn), for which the IC50 is 1300 nM.

Regarding `COC(=O)C(CSSCC(NCCC(=O)c1ncccn1)C(=O)OC)NCCC(=O)c1ncccn1` (stereo not drawn), the IC50 is 5500 nM.

Consider `O=C(CCNCCSSCCNCCC(=O)c1ccc2ccccc2c1)c1ccc2ccccc2c1`, for which the IC50 was 2000 nM.

With `COC(=O)C(CCSSCCC(NCCC(=O)c1ccc(Cl)s1)C(=O)OC)NCCC(=O)c1ccc(Cl)s1` (stereo not drawn), the IC50 was found to be 120 nM.

Regarding `N#Cc1ccc(C(=O)CCNCCSSCCNCCC(=O)c2ccc(C#N)cc2)cc1`, the IC50 is 1100 nM.

Consider `COC(=O)C(CCSSCCC(NCCC(=O)c1ccc(Br)s1)C(=O)OC)NCCC(=O)c1ccc(Br)s1` (stereo not drawn), for which the IC50 came out at 99 nM.

Regarding `O=C(CCNCCSSCCNCCC(=O)c1cc2ccccc2s1)c1cc2ccccc2s1`, the IC50 was found to be 170 nM.

`COC(=O)C(CSSCC(NCCC(=O)c1ccco1)C(=O)OC)NCCC(=O)c1ccco1` (stereo not drawn): the IC50 turned out to be 2900 nM.

Turning to `COC(=O)C(CSSCC(NCCC(=O)c1ccc(Br)cc1)C(=O)OC)NCCC(=O)c1ccc(Br)cc1` (stereo not drawn), the half-maximal inhibitory concentration (IC50) amounted to 11000 nM.

For the compound `COC(=O)C(CSSCC(NCCC(=O)c1ccncc1)C(=O)OC)NCCC(=O)c1ccncc1` (stereo not drawn), the IC50 is 3400 nM.

Regarding `O=C(CCNCCSSCCNCCC(=O)c1sccc1Br)c1sccc1Br`, the IC50 is 210 nM.

`COC(=O)C(CSSCC(NCCC(=O)c1ncc(C)s1)C(=O)OC)NCCC(=O)c1ncc(C)s1` (stereo not drawn): the IC50 amounted to 4000 nM.

As to `COC(=O)C(CSSCC(NCCC(=O)c1nccs1)C(=O)OC)NCCC(=O)c1nccs1` (stereo not drawn), the IC50 amounted to 9700 nM.

On to `O=C(CCNCCSSCCNCCC(=O)c1cccc(Br)n1)c1cccc(Br)n1`, for which the 50% inhibitory concentration (IC50) is 2600 nM.

For `COC(=O)C(CSSCC(NCCC(=O)c1ccc(Cl)s1)C(=O)OC)NCCC(=O)c1ccc(Cl)s1` (stereo not drawn), the IC50 is 190 nM.

As to `O=C(CCNCCSSCCNCCC(=O)c1ccc(I)s1)c1ccc(I)s1`, the IC50 worked out at 170 nM.

On to `O=C(CCNCCSSCCNCCC(=O)c1ccccc1)c1ccccc1`, for which the half-maximal inhibitory concentration (IC50) was 2200 nM.

With `O=C(CCNCCSSCCNCCC(=O)c1cccnc1)c1cccnc1`, the IC50 was determined as 1400 nM.

Regarding `COC(=O)C(CCSSCCC(NCCC(=O)c1sccc1Br)C(=O)OC)NCCC(=O)c1sccc1Br` (stereo not drawn), the IC50 was determined as 330 nM.

On to `O=C(CCNCCSSCCNCCC(=O)c1ccc(Cl)s1)c1ccc(Cl)s1`, for which the IC50 amounted to 120 nM.

As to `O=C(CCNCCSSCCNCCC(=O)c1ccc(I)cc1)c1ccc(I)cc1`, the IC50 came out at 890 nM.

On to `COC(=O)C(CSSCC(NCCC(=O)c1cccc(Br)n1)C(=O)OC)NCCC(=O)c1cccc(Br)n1` (stereo not drawn), for which the IC50 worked out at 1100 nM.

In the case of `COC(=O)C(CSSCC(NCCC(=O)c1ccc(Br)s1)C(=O)OC)NCCC(=O)c1ccc(Br)s1` (stereo not drawn), the IC50 turned out to be 180 nM.

With `O=C(CCNCCSSCCNCCC(=O)c1cccs1)c1cccs1`, the concentration for half-maximal inhibition (IC50) was determined as 510 nM.

Turning to `O=C(CCNCCSSCCNCCC(=O)c1ccsc1)c1ccsc1`, the IC50 amounted to 1600 nM.

Regarding `COC(=O)C(CSSCC(NCCC(=O)c1sccc1Br)C(=O)OC)NCCC(=O)c1sccc1Br` (stereo not drawn), the IC50 worked out at 5700 nM.

As to `COC(=O)C(CCSSCCC(NCCC(=O)c1cc2ccccc2s1)C(=O)OC)NCCC(=O)c1cc2ccccc2s1` (stereo not drawn), the concentration for half-maximal inhibition (IC50) was 120 nM.

For another experiment, the species on record is Cavia porcellus. Kind of experiment: Inhibition of guinea pig protein-glutamine gamma-glutamyltransferase 2-mediated amyloid-beta oligomerization at 0.1 to 10 uM.
Turning to `NNC(=O)CSc1nc2sc3c(c2c(=O)n1-c1cccc(F)c1)C(c1ccccc1)CCC3` (stereo not drawn), the inhibition entry is “Active”.
